Here are results for 21 compounds from patent US9951014B2, “Mammalian and bacterial nitric oxide synthase inhibitors” (Northwestern University, priority 2014, dated 2018).

Like-named read-outs stand apart in the source and are kept apart here.

The target of experiment [1] is rat nNOS (Rattus norvegicus (Rat), UniProt P29476). In words: Oxyhemoglobin NO capture assay with purified NOS. In kind it is biochemical.
Experimental: (§1) The oxyhemoglobin NO assays were performed with purified NOSs using a Biotek Gen5™ microplate reader as previously reported. […] For iNOS, calmodulin and CaCl2 were omitted because iNOS is calcium independent. […] The calculated standard deviations of the assays were less than 10% with all NOSs. […] The selectivity of antagonism of nNOS was determined by calculating the ratios of the Ki values with iNOS or eNOS to those with rat nNOS.
The target in experiment [2] is human nNOS (Homo sapiens (Human), UniProt P29475). In words: Oxyhemoglobin NO capture assay with purified NOS. The conditions noted are these: Table 9; read-out: Ki H nNOS. In kind it is biochemical.
Experimental: as §1
The target of experiment [3] is bovine eNOS (Bos taurus (Bovine), UniProt P29473). In words: Oxyhemoglobin NO capture assay with purified NOS. It counts as biochemical. The following applies: for e/n selectivity: ratio Ki eNOS / Ki rat nNOS.
Experimental: as §1
The target in experiment [4] is murine iNOS (Mus musculus (Mouse), UniProt P29477). The experiment in a line: Oxyhemoglobin NO capture assay with purified NOS. The conditions noted are these: for i/n selectivity: ratio Ki iNOS / Ki rat nNOS. It counts as biochemical.
Experimental: as §1
For experiment [5], the target named is T1, bsNOS (Bacillus subtilis (strain 168), UniProt O34453). In words: Imidazole displacement, spectral binding constant KS.
T1 sequence (O34453 whole entry): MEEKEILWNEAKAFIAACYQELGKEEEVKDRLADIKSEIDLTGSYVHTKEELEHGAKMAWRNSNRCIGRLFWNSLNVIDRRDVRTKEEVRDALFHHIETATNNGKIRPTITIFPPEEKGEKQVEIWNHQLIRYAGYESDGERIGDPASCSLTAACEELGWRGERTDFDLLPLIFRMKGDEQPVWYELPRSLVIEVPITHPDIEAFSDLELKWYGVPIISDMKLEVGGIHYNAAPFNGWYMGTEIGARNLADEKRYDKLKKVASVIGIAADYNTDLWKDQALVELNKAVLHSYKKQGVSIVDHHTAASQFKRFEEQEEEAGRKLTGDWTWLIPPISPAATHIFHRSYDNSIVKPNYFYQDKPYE
Experiment [6] concerns S. aureus UAMS1182 (MRSA). The experiment in a line: Effect of H2O2 and NOS inhibitors on S. aureus viability (CFU). The following applies: for effect of co-treatment with H2O2 on killing of S. aureus: 200 μM inhibitor + 5 mM H2O2; for S. aureus survival, inhibitor alone: 200 μM inhibitor, WT and Δnos strains. In kind it is cell-based, Staphylococcus aureus.
Experiment [7] concerns the target T1, bsNOS. The following applies: cited from earlier work.
The target in experiment [8] is nNOS (Rattus norvegicus (Rat), UniProt P29476). The following applies: literature data (footnote b); read-out: KS nNOS; cited from earlier work.
Experiment [9] concerns the target eNOS (Bos taurus (Bovine), UniProt P29473). The conditions noted are these: literature data (footnotes a, c); read-out: KS eNOS; cited from earlier work.
Experiment [10] concerns B. subtilis. The experiment in a line: Effect of oxidative/antimicrobial stress and NOS inhibitors on B. subtilis survival (CFU). In kind it is cell-based, Bacillus subtilis.
The mark [11] stands for this setting: WT − KS, wild-type bsNOS, Table 8.
The mark [12] stands for this setting: wt B. subtilis, L-NNA, 1 at 500 μM, 2 at 250 μM.

Broadly, the Ki is the dissociation constant of the complex between target and ligand, obtained from inhibition or displacement. For `CNCCN(C)c1cccc(CCc2cc(C)cc(N)n2)c1` [Compound 10a, N^1-(3-(2-(6-Amino-4-methylpyridin-2-yl)ethyl)phenyl)-N^1,N^2-dimethylethane-1,2-diamine], the Ki in experiment [1] (Table 9, read-out: Ki Rat nNOS) was 0.13 ± 0.01 µM; in experiment [2], 0.098 ± 0.005 µM; in experiment [3] (Table 9, read-out: Ki eNOS) it was 20.2 µM; in experiment [4] (Table 9, read-out: Ki iNOS) it was 5.34 µM. In addition, the e/n selectivity in experiment [3] (Table 9) is 156. Besides, in [4] (Table 9), the i/n selectivity worked out at 41.
As to `Cc1cc(N)nc(CCc2cccc(NCCN(C)C)c2)c1` [Compound 10b, N^1-(3-(2-(6-Amino-4-methylpyridin-2-yl)ethyl)phenyl)-N^2,N^2-dimethylethane-1,2-diamine], the Ki in [1] (Table 9, read-out: Ki Rat nNOS) amounted to 0.19 ± 0.012 µM; in [2], 0.111 ± 0.009 µM; in experiment [3] (Table 9, read-out: Ki eNOS), 23.7 µM; in experiment [4] (Table 9, read-out: Ki iNOS), 5.43 µM. Besides, the e/n selectivity in experiment [3] (Table 9) was found to be 125. In addition, the i/n selectivity in experiment [4] (Table 9) came to 29.
As for `Cc1cc(N)nc(CCc2cccc(N(C)CCN)c2)c1` [Compound 10c, N^1-(3-(2-(6-Amino-4-methylpyridin-2-yl)ethyl)phenyl)-N^1-methylethane-1,2-diamine], the Ki in experiment [1] (Table 9, read-out: Ki Rat nNOS) worked out at 0.062 ± 0.0041 µM; in experiment [2], 0.056 ± 0.002 µM; in [3] (Table 9, read-out: Ki eNOS), 10.7 µM; in experiment [4] (Table 9, read-out: Ki iNOS), 2.9 µM. For the same compound, the e/n selectivity in [3] (Table 9) stood at 172. In experiment [4] (Table 9), the i/n selectivity amounted to 47.
Regarding `Cc1cc(N)nc(CCc2cccc(N(C)CCCN)c2)c1` [Compound 10d, N^1-(3-(2-(6-Amino-4-methylpyridin-2-yl)ethyl)phenyl)-N^1-methylpropane-1,3-diamine], the Ki was determined as 0.43 ± 0.022 µM in experiment [1] (Table 9, read-out: Ki Rat nNOS); 0.109 ± 0.003 µM in [2]; 10.7 µM in experiment [3] (Table 9, read-out: Ki eNOS); 4.64 µM in experiment [4] (Table 9, read-out: Ki iNOS). Moreover, the e/n selectivity in experiment [3] (Table 9) stood at 25. Moreover, the i/n selectivity in experiment [4] (Table 9) was 11.
Take `CNCCN(C)c1cncc(CCc2cc(C)cc(N)n2)c1` [Compound 14b, N^1-(5-(2-(6-Amino-4-methylpyridin-2-yl)ethyl)pyridin-3-yl)-N^1,N^2-dimethylethane-1,2-diamine]: the Ki turned out to be 0.059 ± 0.0032 µM in [2] and 12.9 µM in [3] (Table 9, read-out: Ki eNOS).
`Nc1ccc2ccc(CCNCCCc3cccc(F)c3)cc2n1` [Compound 19] returned a Kd in [5] (KS (bsNOS), Table 5) of 3.6 ± 0.8 µM. For the same compound, the Kd in experiment [5] (setting [11]) worked out at 3.6 ± 0.8 µM. In experiment [6], the “effect of co-treatment with H2O2 on killing of S. aureus” value was “significantly increases the H2O2-mediated killing” and the “S. aureus survival, inhibitor alone” value is “reduced bacterial survival over time”.
As to `CNCCN(C)c1cc(CCc2cc(C)cc(N)n2)cc(C(F)(F)F)c1` [Compound 19a, N^1-(3-(2-(6-Amino-4-methylpyridin-2-yl)ethyl)-5-(trifluoromethyl)phenyl)-N^1,N^2-dimethylethane-1,2-diamine], the Ki in [1] (Table 9, read-out: Ki Rat nNOS) is 0.067 ± 0.0033 µM; in experiment [2], 0.189 ± 0.016 µM; in experiment [3] (Table 9, read-out: Ki eNOS), 15.9 µM; in [4] (Table 9, read-out: Ki iNOS), 8.13 µM. The e/n selectivity in [3] (Table 9) amounted to 238. In experiment [4] (Table 9), the i/n selectivity is on record as 122.
Take `CNCCN(C)c1cc(F)cc(CCc2cc(C)cc(N)n2)c1` [Compound 19b, N^1-(3-(2-(6-Amino-4-methylpyridin-2-yl)ethyl)-5-fluorophenyl)-N^1,N^2-dimethylethane-1,2-diamine]: the Ki in [1] (Table 9, read-out: Ki Rat nNOS) was 0.034 ± 0.0012 µM; in experiment [2], 0.105 ± 0.0081 µM; in experiment [3] (Table 9, read-out: Ki eNOS), 30.2 µM; in experiment [4] (Table 9, read-out: Ki iNOS) it was 5.56 µM.
In the case of `Cc1cc(N)nc(CCc2cc(C#N)cc(NCc3cccc(F)c3)c2)c1` [Compound 23, 3-(2-(6-Amino-4-methylpyridin-2-yl)ethyl)-5-((3-fluorobenzyl)amino)benzonitrile], the Kd in [5] (KS (bsNOS), Table 5) is 9.6 ± 1.3 µM.
As to `Cc1cc(N)nc(CCc2cc(F)cc(NCc3ccc(F)cc3)c2)c1` [Compound 24, 6-(3-Fluoro-5-((4-fluorobenzyl)amino)phenethyl)-4-methylpyridin-2-amine], the Kd in [5] (KS (bsNOS), Table 5) is 29 ± 4 µM.
In turn, `Cc1cc(N)nc(CCc2cc(F)cc(NCc3cccc(F)c3)c2)c1` [Compound 25, 6-(3-Fluoro-5-((3-fluorobenzyl)amino)phenethyl)-4-methylpyridin-2-amine] came in with a Kd in [5] (KS (bsNOS), Table 5) of 19 ± 5 µM.
As to `CNCCN(C)Cc1ccc(-c2cc(C)cc(N)n2)cc1` [Compound 26, N1-(4-(6-amino-4-methylpyridin-2-yl)benzyl)-N1,N2-dimethylethane-1,2-diamine], in [5] (KS (bsNOS), Table 5), the Kd worked out at 6.3 ± 0.3 µM.
Take `Cc1cc(N)nc(-c2ccc(CNCCc3cccc(F)c3)cc2)c1` [Compound 27, 6-(4-(((3-Fluorophenethyl)amino)methyl)phenyl)-4-methylpyridin-2-amine]: the values for the Ki in [1], in [3] and in experiment [4] were 0.525 µM, 2.87 µM and 6.44 µM, respectively. Moreover, the Kd in experiment [5] (KS (bsNOS), Table 5) came out at 8.9 ± 2 µM; in experiment [5] (setting [11]) it was 8.8 ± 2 µM. The “effect of co-treatment with H2O2 on killing of S. aureus” value in [6] is “significantly increases the H2O2-mediated killing”. For the same compound, in experiment [6], the “S. aureus survival, inhibitor alone” value is “reduced bacterial survival over time”.
As to `Cc1cc(N)nc(-c2ccc(CNCCCc3cccc(Cl)c3)cc2)c1` [Compound 28, 6-(4-(((3-(3-Chlorophenyl)propyl)amino)methyl)phenyl)-4-methylpyridin-2-amine], the Kd in experiment [5] (KS (bsNOS), Table 5) amounted to 3.2 ± 0.1 µM.
In experiment [5] (KS (bsNOS), Table 5), `Cc1cc(N)nc(-c2ccc(CNCc3cccc(F)c3)cc2)c1` [Compound 29, 6-(4-(((3-Fluorobenzyl)amino)methyl)phenyl)-4-methylpyridin-2-amine] had a Kd of 1.5 ± 0.3 µM.
Turning to `CNCCN(C)c1cccc(Cc2cc(C)cc(N)n2)n1` [Compound 31], the Kd in experiment [5] (KS (bsNOS), Table 5) worked out at 94 ± 22 µM.
In experiment [5] (KS (bsNOS), Table 5), `CNCCN(C)Cc1cccc(Cc2cc(C)cc(N)n2)c1` [Compound 32] showed a Kd of 1.6 ± 0.6 µM.
Consider `N=C(N)NCCC[C@H](N)C(=O)O` [L-Arg, L-arginine], for which the Kd in experiment [7] (read-out: WT − KS, wild-type bsNOS, referenced value (25)) was 4.8 µM; in experiment [5] (KS bsNOS, imidazole displacement, Tables 1 and 4), 0.76 µM; in experiment [8], 0.72 µM; in [9] it was 1 µM.
`N=C(NCCC[C@H](N)C(=O)O)N[N+](=O)[O-]` [L-NNA, N^ω-nitro-L-arginine, reference compound]: in [10] (setting [12]), the “effect on bacterial % survival in the presence of ACR” value is given as “bacterial % survival decreased” and the “effect on bacterial % survival in the presence of H2O2” value was “trivial effects on bacterial survival”.
On to `NC(=NCCC[C@H](N)C(=O)O)NO` [NOHA, N-omega-hydroxy-L-arginine, reference compound], for which the Kd was 3.2 µM in experiment [7] (absence of H4B, referenced values (8), (9), read-out: KS bsNOS (−H4B)) and 1.9 ± 0.1 µM in experiment [5] (presence of 50 μM H4B, read-out: KS bsNOS (+H4B)). Further, the “fold difference in KS binding to bsNOS in presence vs absence of H4B” value in experiment [5] (50 μM H4B) came out at 1.2 fold.
For the compound acriflavine, in [10] (B. subtilis, agent alone (800 μM ACR or 500 μM NOS inhibitor)), the “bacterial growth, % of control” value is 23 % of control.
